A short description of experiment [1]: insulin promoter down-regulators in MIN6 cells, imaging, high-content screening, mouse beta cells (AID 1628). Format: functional.
Experiment [2] in a line: cytotoxicity in MIN6 insulinoma cells, dose response, cytotoxicity control, cell-based, mouse insulinoma (AID 2122).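 Further: confirmatory high-throughput counterscreen run to flag cytotoxic compounds; mouse MIN-6 beta cells carrying an insulin promoter eGFP reporter.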 Format: functional.
The target of experiment [3] is T1, High affinity choline transporter 1 (Homo sapiens, UniProt Q9GZV3).
T1 sequence (Q9GZV3 whole entry): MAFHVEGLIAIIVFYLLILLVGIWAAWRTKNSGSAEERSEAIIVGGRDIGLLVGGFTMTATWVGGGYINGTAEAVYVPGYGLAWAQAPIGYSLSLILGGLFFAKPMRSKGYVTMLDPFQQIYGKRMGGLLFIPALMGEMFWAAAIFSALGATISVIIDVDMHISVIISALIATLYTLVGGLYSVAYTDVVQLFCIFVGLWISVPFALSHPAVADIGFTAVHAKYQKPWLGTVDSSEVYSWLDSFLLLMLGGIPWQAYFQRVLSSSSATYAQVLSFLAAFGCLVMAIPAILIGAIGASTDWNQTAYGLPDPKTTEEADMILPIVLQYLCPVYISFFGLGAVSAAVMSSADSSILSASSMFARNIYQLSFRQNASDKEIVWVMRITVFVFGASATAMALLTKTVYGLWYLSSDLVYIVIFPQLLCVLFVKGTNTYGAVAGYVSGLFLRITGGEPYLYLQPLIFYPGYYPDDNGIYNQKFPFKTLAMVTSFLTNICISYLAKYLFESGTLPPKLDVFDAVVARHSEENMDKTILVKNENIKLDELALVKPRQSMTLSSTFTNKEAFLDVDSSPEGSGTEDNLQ
The experiment is described as follows: CHT inhibitors, dose response, cell-based, 5-point CRC, membrane potential dye (AID 504840). Type of experiment: functional.

The target of experiment [4] is Ras and Rab interactor 1/Tyrosine-protein kinase ABL1 (Homo sapiens, UniProt P00519+Q13671). Format: functional.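 Further: biochemical TR-FRET dose-response test measuring inhibition of binding between Rin1 and Abl proteins.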
The target in experiment [5] is Adenosylmethionine-8-amino-7-oxononanoate aminotransferase (Mycobacterium tuberculosis, UniProt P9WQ81). The experiment is described as follows: Mycobacterium tuberculosis BioA enzyme inhibitor Measured in Biochemical System Using Plate Reader - 2163-02_Inhibitor_Dose_CherryPick_Activity. Format: functional, Mycobacterium tuberculosis UT205.
Experiment [6] addresses T2, Sentrin-specific protease 8 (Homo sapiens, UniProt Q96LD8).
T2 sequence (Q96LD8 whole entry): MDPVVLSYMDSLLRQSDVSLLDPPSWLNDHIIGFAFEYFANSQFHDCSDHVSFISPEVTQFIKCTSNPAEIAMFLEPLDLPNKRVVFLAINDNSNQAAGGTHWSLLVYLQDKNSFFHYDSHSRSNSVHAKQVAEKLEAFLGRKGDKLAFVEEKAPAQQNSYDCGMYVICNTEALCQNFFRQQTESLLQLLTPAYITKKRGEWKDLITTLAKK
Type of experiment: functional.

Experiment [7] deals with T2, Sentrin-specific protease 8. Format: functional. This is another data set of the same source.
The nature of experiment [8]: AlphaScreen signal interference compounds, dose response, artefact control for ARNT-TACC3 interaction inhibitor project, biochemical, luminescence, cherry-pick (AID 651705).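 Further: AlphaScreen bead proximity signal that flags compounds interfering with the detection technology; potency reflects signal decrease which marks the compound as an assay artifact.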 Format: functional. (Alpha assays give light when donor and acceptor beads are brought close together.)
Experiment [9] deals with Nuclear receptor subfamily 5 group A member 2 (Homo sapiens, UniProt O00482). Type of experiment: functional, cell-based.
A further experiment addresses Steroidogenic factor 1 (Homo sapiens, UniProt Q13285). The experiment is described as follows: Counterscreen for inverse agonists of the liver receptor homolog-1 (LRH-1; NR5A2): Luminescence-based cell-based high throughput dose response assay to identify inverse agonists of the Steroidogenic Factor 1 Nuclear Receptor (SF1; NR5A1). Type of experiment: functional. (In general: A counterscreen serves to expose hits that act by an unwanted route or on another target.)

Experiment [10] can be described thus: StAR promoter reporter inhibition counter-screen, dose response, counter-screen for LRH-1 inverse agonist project, cell-based, luminescence, luciferase reporter (AID 651969). Format: functional.
The target of experiment [11] is T3, Corticotropin-releasing factor receptor 2/Corticotropin-releasing factor-binding protein (Homo sapiens, UniProt P24387+Q13324).
T3 sequence (Q13324 whole entry): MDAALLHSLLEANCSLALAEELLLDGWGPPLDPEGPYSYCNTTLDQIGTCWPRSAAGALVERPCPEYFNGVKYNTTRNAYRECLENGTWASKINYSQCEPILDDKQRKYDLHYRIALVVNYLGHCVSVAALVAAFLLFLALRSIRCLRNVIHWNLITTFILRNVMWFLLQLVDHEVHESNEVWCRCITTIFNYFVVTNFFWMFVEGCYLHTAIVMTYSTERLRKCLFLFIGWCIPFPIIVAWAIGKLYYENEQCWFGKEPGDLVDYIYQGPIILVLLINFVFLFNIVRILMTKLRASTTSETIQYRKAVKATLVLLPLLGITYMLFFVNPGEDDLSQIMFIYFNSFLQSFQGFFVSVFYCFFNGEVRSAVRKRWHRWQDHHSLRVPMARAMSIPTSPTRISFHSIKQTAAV
T3 sequence (P24387 whole entry): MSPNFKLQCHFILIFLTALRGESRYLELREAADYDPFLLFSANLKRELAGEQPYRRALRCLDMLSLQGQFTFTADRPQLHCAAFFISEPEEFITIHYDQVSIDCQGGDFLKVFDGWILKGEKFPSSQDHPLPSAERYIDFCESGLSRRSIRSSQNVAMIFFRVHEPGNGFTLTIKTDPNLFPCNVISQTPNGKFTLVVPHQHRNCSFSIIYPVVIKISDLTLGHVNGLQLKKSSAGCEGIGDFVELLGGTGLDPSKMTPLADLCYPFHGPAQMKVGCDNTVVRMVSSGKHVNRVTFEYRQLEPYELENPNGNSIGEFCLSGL
The experiment is described as follows: Dose Response confirmation of uHTS hits for small molecule antagonists of the CRF-binding protein and CRF-R2 receptor complex. Type of experiment: functional. Conditions: read-out: IC50_Mean.

For experiment [12], the target named is T3, Corticotropin-releasing factor receptor 2/Corticotropin-releasing factor-binding protein. The experiment is described as follows: activators of CRF receptor 2 with binding protein – uHTS hits, confirmation (AID 602473). Format: functional. The settings on record: read-out: EC50_Mean.
Experiment [13] is described as follows: CRF-BP/CRF-R2 complex antagonists, dose response, cell-based, uHTS hits, 384-well (AID 651639). Type of experiment: functional, Homo sapiens. Conditions: read-out: IC50_Mean.
Experiment [14] has as its target T4, Carboxy-terminal domain RNA polymerase II polypeptide A small phosphatase 1 (Homo sapiens, UniProt Q9GZU7).
T4 sequence (Q9GZU7 whole entry): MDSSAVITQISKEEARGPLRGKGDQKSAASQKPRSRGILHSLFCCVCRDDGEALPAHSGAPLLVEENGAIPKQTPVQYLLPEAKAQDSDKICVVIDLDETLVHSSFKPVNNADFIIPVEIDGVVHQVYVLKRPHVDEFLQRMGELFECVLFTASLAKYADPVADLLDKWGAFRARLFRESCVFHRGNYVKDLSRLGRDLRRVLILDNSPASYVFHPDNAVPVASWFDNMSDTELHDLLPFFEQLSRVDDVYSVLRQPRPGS
The experiment is described as follows: inhibitors of CTDSP1, concentration-response testing, biochemical assay, absorbance-based, actives from ultra-high-throughput screening (AID 540297). Format: functional.

Experiment [15] addresses Tyrosine-protein phosphatase non-receptor type 11 (Homo sapiens, UniProt Q06124). The experiment is described as follows: SHP2 phosphatase inhibition, dose response, selectivity assay for STEP inhibitor project, biochemical (AID 602367). Format: functional. Conditions: read-out: IC50_Mean.
The target in experiment [16] is Tyrosine-protein phosphatase non-receptor type 5 (Homo sapiens, UniProt P54829). The experiment is described as follows: STEP phosphatase inhibitors, confirmation, biochemical, fluorescence intensity, uHTS hits (AID 602372). Format: functional. Conditions: read-out: IC50_Mean.
Experiment [17] deals with Dual specificity protein phosphatase 3 (Homo sapiens, UniProt P51452). The experiment is described as follows: VHR phosphatase inhibition, dose response, selectivity assay for STEP inhibitor project, biochemical (AID 602374). Type of experiment: functional. Conditions: read-out: IC50_Mean.
The target in experiment [18] is T5, Low molecular weight phosphotyrosine protein phosphatase (Homo sapiens, UniProt P24666).
T5 sequence (P24666 whole entry): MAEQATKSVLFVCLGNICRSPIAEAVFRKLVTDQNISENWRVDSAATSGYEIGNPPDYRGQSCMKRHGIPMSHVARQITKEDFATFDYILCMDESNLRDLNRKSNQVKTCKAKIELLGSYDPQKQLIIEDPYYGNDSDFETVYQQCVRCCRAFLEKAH
Type of experiment: functional. Conditions: read-out: IC50_Mean.

Experiment [19] has as its target T5, Low molecular weight phosphotyrosine protein phosphatase. Format: functional. The settings on record: read-out: IC50_Mean. This is another data set of the same source.
The target in experiment [20] is T6, Tyrosine-protein phosphatase non-receptor type 22 (Homo sapiens, UniProt Q9Y2R2).
T6 sequence (Q9Y2R2 whole entry): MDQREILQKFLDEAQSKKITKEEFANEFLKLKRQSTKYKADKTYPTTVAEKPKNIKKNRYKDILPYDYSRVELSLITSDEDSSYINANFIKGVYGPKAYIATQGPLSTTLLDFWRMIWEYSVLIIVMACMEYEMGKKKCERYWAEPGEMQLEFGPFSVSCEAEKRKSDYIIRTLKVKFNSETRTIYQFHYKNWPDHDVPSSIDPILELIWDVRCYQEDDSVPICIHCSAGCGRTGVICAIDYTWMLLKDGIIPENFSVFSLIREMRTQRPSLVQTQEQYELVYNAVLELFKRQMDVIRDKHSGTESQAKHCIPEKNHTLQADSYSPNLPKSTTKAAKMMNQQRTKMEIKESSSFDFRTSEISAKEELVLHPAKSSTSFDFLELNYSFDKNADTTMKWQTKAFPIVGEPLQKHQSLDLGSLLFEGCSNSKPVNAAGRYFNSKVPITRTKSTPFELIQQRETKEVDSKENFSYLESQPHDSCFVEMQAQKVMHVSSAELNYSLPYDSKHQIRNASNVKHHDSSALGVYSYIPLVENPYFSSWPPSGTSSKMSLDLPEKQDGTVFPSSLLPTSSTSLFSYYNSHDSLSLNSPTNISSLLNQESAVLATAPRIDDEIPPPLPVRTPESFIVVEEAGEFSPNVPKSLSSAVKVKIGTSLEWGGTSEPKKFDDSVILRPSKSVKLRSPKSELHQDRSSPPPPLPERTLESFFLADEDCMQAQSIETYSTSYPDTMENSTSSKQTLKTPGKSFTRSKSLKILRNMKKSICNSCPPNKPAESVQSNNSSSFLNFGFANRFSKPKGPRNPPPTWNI
The experiment is described as follows: LYP phosphatase inhibition for selectivity, dose response, selectivity assay for LMPTP inhibitor project, biochemical, fluorescence, LYP catalytic domain (AID 652006). Type of experiment: functional. Conditions: read-out: IC50_Mean.

Experiment [21] deals with T7, ATP-dependent translocase ABCB1 (Homo sapiens, UniProt P08183). The experiment is described as follows: ABCG2 efflux pump inhibitor potency, dose response, Ig-MXP3 cells, JC-1, flow cytometry, set 2 (AID 504566).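 Further: flow cytometry median green fluorescence of retained JC-1 dye; potency of efflux pump inhibition measured as rising substrate retention.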 The settings on record: read-out: EC50_MICROM_. Format: functional.
Experiment [22] has as its target T7, ATP-dependent translocase ABCB1. The experiment is described as follows: ABCB1 efflux inhibitor potency, dose response, Jurkat-DNR cells, JC-1, flow cytometry, set 2 (AID 504569).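 Further: potency of pump inhibitors that raise cellular JC-1 green fluorescence up to the nicardipine level.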 Type of experiment: functional. Conditions: read-out: EC50_MICROM_.
Experiment [23] in a line: ARNT/TACC3 interaction disruptors, potency, confirmation, biochemical, AlphaScreen, cherry-picked samples (AID 651703).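 Further: His-tagged ARNT PAS-B domain paired with GST-TACC3 E629A dimer coactivator fragment; potency of inhibitors that break up the complex and lower AlphaScreen signal.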 Format: functional, Homo sapiens.
Experiment [24] addresses Hepatocyte nuclear factor 4-alpha (Homo sapiens, UniProt P41235). Type of experiment: functional, cell-based.

The values that follow come from ChEMBL document CHEMBL1201862, “PubChem BioAssay data set” (2004).

One may read the AC50 as the concentration giving half of the maximal activity seen.

Molecules are shown by their SMILES. The source made the active and inactive calls. Where only a bound is given, the exact number is not on record here.

T7 sequence (P08183 whole entry): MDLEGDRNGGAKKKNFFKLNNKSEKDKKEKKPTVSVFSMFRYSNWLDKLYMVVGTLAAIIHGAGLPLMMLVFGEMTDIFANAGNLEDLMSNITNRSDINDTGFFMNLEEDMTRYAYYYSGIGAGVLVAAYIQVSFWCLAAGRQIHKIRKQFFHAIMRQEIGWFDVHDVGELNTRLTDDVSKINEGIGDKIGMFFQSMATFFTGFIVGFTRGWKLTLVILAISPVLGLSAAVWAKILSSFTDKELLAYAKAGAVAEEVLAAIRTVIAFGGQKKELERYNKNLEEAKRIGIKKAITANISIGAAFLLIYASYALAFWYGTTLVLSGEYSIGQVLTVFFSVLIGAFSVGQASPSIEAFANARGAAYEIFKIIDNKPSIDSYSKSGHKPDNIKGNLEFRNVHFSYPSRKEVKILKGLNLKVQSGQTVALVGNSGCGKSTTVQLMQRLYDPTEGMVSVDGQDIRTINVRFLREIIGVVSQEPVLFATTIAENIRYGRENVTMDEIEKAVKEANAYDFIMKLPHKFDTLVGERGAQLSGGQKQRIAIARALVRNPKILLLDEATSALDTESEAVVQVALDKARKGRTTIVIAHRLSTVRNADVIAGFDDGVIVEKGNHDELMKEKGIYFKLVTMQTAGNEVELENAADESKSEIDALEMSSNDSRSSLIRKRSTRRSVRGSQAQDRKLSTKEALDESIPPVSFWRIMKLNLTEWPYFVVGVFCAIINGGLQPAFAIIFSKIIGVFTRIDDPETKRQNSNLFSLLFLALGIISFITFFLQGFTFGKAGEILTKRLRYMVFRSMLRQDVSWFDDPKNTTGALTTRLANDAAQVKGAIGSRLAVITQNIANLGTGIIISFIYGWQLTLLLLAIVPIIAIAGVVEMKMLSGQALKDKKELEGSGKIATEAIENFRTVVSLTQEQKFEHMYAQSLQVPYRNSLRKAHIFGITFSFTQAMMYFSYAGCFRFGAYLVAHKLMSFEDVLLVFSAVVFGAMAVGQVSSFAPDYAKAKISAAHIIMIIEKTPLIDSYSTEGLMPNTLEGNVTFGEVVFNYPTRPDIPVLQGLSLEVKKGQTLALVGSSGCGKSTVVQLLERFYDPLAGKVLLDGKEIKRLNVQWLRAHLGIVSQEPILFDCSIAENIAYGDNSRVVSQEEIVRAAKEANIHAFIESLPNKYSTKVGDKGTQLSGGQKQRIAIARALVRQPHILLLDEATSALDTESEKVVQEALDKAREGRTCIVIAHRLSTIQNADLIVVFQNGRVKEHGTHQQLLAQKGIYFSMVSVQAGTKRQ
Chain of Dual specificity protein phosphatase 3 (P51452 whole entry): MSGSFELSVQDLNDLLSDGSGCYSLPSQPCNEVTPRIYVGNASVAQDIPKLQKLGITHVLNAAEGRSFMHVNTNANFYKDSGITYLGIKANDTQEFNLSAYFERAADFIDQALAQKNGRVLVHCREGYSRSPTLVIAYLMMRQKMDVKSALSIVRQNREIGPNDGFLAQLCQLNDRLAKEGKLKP
Chain of Hepatocyte nuclear factor 4-alpha (P41235 whole entry): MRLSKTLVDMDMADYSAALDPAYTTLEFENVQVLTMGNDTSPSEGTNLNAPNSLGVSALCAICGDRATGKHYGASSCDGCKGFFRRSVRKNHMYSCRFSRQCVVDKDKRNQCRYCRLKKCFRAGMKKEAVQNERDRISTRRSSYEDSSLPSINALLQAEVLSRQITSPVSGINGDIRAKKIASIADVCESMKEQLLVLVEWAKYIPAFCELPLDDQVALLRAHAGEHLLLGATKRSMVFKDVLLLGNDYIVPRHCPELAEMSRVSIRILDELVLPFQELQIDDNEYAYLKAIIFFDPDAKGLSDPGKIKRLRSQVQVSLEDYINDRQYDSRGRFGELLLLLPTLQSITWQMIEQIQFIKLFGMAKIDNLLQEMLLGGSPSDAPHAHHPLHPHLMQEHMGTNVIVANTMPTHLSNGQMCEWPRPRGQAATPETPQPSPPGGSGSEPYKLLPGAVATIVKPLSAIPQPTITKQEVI
Chain of Tyrosine-protein phosphatase non-receptor type 11 (Q06124 whole entry): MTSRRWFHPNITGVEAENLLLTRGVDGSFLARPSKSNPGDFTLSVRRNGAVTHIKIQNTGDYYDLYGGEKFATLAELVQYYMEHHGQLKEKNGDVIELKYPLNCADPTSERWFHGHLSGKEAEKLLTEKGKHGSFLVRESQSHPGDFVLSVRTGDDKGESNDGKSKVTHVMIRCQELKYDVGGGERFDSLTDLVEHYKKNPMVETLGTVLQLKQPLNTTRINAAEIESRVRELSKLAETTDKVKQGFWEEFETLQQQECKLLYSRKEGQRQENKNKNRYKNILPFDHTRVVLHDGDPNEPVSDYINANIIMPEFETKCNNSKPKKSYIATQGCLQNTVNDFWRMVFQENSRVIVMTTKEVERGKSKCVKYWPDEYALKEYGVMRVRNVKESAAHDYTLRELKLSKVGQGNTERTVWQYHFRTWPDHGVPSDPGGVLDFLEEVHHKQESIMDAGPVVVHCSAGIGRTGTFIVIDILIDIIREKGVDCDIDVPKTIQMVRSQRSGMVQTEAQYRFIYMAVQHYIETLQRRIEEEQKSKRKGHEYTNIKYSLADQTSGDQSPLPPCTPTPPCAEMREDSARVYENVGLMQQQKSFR
Chain of Nuclear receptor subfamily 5 group A member 2 (O00482 whole entry): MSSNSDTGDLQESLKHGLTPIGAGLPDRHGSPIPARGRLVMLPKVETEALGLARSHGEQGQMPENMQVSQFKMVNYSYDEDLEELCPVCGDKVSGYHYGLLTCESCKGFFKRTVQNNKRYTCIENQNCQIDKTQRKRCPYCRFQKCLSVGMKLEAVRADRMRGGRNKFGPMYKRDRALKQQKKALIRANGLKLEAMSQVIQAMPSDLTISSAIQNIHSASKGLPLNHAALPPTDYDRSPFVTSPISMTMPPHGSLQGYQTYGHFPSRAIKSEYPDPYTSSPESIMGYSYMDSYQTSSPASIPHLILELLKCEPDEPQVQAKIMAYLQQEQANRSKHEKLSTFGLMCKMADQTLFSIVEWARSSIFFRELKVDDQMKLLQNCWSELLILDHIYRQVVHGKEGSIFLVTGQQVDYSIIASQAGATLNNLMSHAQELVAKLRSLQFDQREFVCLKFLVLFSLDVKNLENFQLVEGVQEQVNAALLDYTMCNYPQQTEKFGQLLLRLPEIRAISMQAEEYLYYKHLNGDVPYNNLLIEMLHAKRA
Chain of Ras and Rab interactor 1/Tyrosine-protein kinase ABL1 (P00519 whole entry): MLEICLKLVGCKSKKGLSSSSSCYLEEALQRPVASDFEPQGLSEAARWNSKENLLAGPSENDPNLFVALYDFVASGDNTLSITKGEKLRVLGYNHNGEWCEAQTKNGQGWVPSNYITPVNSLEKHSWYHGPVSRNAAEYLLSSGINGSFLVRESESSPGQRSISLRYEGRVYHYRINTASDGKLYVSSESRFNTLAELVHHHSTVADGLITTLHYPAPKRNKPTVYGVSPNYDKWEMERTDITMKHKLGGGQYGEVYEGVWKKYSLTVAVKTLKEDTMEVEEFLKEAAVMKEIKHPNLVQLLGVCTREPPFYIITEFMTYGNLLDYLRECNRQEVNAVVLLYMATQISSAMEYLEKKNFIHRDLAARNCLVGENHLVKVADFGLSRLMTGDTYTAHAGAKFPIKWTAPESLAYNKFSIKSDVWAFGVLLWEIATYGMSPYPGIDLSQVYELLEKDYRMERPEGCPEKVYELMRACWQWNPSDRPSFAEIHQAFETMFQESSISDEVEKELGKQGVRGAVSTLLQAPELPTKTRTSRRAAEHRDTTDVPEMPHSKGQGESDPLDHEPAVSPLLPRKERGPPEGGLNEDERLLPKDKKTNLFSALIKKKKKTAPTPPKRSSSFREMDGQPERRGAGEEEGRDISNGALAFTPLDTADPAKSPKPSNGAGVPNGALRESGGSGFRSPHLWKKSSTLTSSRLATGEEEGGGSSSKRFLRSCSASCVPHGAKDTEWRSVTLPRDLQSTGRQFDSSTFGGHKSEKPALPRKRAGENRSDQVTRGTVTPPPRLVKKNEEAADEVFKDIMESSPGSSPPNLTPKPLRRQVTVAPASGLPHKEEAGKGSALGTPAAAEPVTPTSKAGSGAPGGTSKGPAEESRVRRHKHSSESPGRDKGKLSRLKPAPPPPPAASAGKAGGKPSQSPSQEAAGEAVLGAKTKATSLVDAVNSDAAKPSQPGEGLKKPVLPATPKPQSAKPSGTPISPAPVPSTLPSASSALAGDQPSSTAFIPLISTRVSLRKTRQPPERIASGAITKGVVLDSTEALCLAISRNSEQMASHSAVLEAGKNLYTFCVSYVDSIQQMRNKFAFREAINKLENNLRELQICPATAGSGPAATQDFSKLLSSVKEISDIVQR
Chain of Ras and Rab interactor 1/Tyrosine-protein kinase ABL1 (Q13671 whole entry): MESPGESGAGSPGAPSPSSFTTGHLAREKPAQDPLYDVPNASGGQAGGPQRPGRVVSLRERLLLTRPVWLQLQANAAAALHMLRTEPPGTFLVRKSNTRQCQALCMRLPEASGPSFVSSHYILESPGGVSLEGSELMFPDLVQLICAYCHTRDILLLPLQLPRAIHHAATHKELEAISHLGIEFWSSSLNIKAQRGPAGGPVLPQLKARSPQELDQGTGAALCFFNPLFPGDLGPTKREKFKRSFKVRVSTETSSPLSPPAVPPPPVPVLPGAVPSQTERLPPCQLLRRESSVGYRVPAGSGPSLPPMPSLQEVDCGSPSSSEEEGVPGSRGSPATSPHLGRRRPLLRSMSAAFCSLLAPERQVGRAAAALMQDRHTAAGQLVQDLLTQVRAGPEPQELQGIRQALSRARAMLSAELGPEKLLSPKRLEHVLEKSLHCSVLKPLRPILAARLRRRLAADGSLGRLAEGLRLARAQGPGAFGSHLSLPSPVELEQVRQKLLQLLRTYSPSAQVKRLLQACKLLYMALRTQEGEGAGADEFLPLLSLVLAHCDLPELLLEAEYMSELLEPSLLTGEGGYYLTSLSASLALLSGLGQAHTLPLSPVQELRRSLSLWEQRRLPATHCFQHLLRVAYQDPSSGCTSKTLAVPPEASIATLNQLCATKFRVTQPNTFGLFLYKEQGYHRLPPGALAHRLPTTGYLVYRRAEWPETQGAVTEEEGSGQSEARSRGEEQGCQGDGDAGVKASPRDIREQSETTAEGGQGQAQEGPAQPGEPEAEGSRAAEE

For the compound `CCOC(=O)N1CCN(C(=O)C2CCN(c3ncnc4c3sc3cccc(F)c34)CC2)CC1`, the IC50 in experiment [1] was 1.49 µM (active); in experiment [2] it was 1.05 µM (active); in experiment [3], 13.8 µM (active); in [4], 14.2 µM (inactive).

With `CC(=O)c1ccc(C(=O)NC2CCCN(Cc3ccccc3F)C2)s1` (stereo not given), the concentration at half-maximal activity (AC50) in experiment [5] is 4.26 µM (active).

With `CN1CC[C@@]2(C)c3cc(O)ccc3N(C)[C@@H]12`, the IC50 is 8.51 µM (active) in experiment [6] and 3.53 µM (active) in experiment [7]. Further, in [8], the half-maximal activity concentration (AC50) is 97.2 µM (active).

Consider `Cc1ccc(NC(=O)COC(=O)c2cc(=O)c3ccccc3o2)c(Br)c1`, for which the IC50 is 3.98 µM (active) in experiment [9], 24.3 µM (inactive) on Steroidogenic factor 1 and 35.9 µM (inactive) in experiment [10].

For the compound `O=C(Cc1ccccc1)NCC(=O)OC(c1ccccc1)c1ccccc1`, the IC50 was 18.9 µM (active) in experiment [11] and > 20 µM (inactive) in experiment [13]. In experiment [12], the EC50 was > 53 µM (inactive).

As to `O=C(N/N=C/c1ccc(OC(=O)c2cccs2)cc1)c1cccc(F)c1`, the IC50 in experiment [14] is 3.55 µM (active); in [15], 1.37 µM (active); in experiment [16], 9.39 µM (active); in [17], 2.45 µM (active); in experiment [18], 17.2 µM (active); in experiment [19], 11.2 µM (active). For the same compound, the IC50 in [20] is 24.9 µM (inactive).

Turning to `O=C(c1ccccc1)N1CCN(c2cc(Cl)nc3cc(-c4cccc(Cl)c4)nn23)CC1`, the figures for the EC50 in [21] and in experiment [22] were 1.8 µM (active) and 3.98 µM (active), respectively.

Turning to `C/C=C/c1ccc([C@H]2[C@@H](CO)N(Cc3ccccn3)[C@@H]2CNC(C)=O)cc1`, the AC50 in experiment [23] was 93.3 µM (active).

For `CC(C)(C)NC(=O)C(c1ccc(C(F)(F)F)cc1)n1c(=O)c(-c2ccco2)nc2ccccc21` (stereo not given), in experiment [24], the IC50 is 1.81 µM (active).
